The results in this text go back to patent US7541383B2, “Asthma and allergic inflammation modulators” (Amgen Inc., priority 2002, dated 2009).

This assay addresses T1, human CRTH2 (Homo sapiens, UniProt Q9Y5Y4).
T1 construct: Full-length human CRTH2 cDNA was generated by polymerase chain reaction (PCR); expressed in transfected cells; host or cells: 293 cells stably transfected with pHLT124 (pCDNA3.1(+)), named 293(124)
T1 sequence (Q9Y5Y4 1-395): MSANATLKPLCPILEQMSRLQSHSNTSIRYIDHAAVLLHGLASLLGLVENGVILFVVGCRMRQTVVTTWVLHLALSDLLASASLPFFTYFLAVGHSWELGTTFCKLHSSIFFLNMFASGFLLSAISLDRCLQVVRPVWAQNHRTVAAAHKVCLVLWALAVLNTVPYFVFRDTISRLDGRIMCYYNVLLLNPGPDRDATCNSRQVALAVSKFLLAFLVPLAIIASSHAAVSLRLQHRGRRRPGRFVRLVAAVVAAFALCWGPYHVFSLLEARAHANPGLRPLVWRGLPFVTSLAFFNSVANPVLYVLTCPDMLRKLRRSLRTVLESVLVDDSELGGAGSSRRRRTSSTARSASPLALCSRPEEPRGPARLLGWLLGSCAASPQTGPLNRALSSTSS
Put plainly: Human CRTH2 binding assay (3H-PGD2 ligand binding, 293(124) cells). The note with it: 3H-PGD2 binding to 293(124) cells stably expressing human CRTH2; room temperature, 2.5 h. As to the method:
Full-length human CRTH2 cDNA was generated by polymerase chain reaction (PCR) using human genomic DNA as template and subsequently cloned into pCDNA3.1(+) (Invitrogen), generating a CRTH2 expression plasmid pHLT124. The plasmid was transfected into 293 cells, […], using LipofectAMINE™ reagents (Gibco/BRL). G418 ([…]) was added to the culture 48 h after transfection and cells were maintained under selection for 3 weeks to ensure that all surviving cells stably expressed CRTH2. These cells are labeled as 293(124) hereafter.
^3H-PGD2 binding assay was performed using 293(124) cells. In brief, cells were washed and suspended in RPMI containing 0.5% BSA and 20 mM HEPES. Each assay contained 25,000 cells, appropriate amount of test compound when necessary and a mixture of 1 nM ^3H-PGD2 (Anmersham Pharmacia Biotech) and 30 nM of unlabeled PGD2 (Cayman Chemicals) in […] final volume. The cell mixture was incubated at room temperature for 2.5 h with shaking and the cells were separated from free ^3H-PGD2 and transferred onto a filter plate using a cell harvester. Radioactivity bound to the cells was measured on a liquid scintillation counter. Nonspecific binding was determined in the presence of […] of unlabeled PGD2.
As usually defined, the IC50 is the concentration that gives 50% inhibition. Higher therefore signals a need for much substance. `Cc1ccc(S(=O)(=O)Nc2cc(C(F)(F)F)ccc2Oc2ccc(CC(=O)O)cc2)cc1` [Example 1, {4-[2-(toluene-4-sulfonylamino)-4-trifluoromethyl-phenoxy]-phenyl}-acetic acid] returned an IC50 of 1 to 15 µM. Next, `O=C(O)Cc1ccc(Oc2ccc(C(F)(F)F)cc2NS(=O)(=O)c2cccc3ccccc23)cc1` [Example 2, {4-[2-(Naphthalene-1-sulfonylamino)-4-trifluoromethyl-phenoxy]-phenyl}-acetic acid]: 1 to 15 µM; `O=C(O)Cc1ccc(Oc2ccc(C(F)(F)F)cc2NC(=O)c2ccccc2)cc1` [Example 3, [4-(2-Benzoylamino-4-trifluoromethyl-phenoxy)-phenyl]-acetic acid]: 1 to 15 µM; `CS(=O)(=O)Nc1cc(C(F)(F)F)ccc1Oc1ccc(CC(=O)O)cc1` [Example 4, [4-(2-Methanesulfonylamino-4-trifluoromethyl-phenoxy)-phenyl]-acetic acid]: over 15 µM. `O=C(O)Cc1cc(OCc2ccccc2)cc(C(F)(F)F)c1` [Example 5, (3-benzyloxy-5-trifluoromethyl-phenyl)-acetic acid] returned an IC50 of 1 to 15 µM. Next, `CCNC(=O)c1ccc(Oc2ccc(CCC(=O)O)cc2)c(NS(=O)(=O)c2ccccc2)c1` [Example 10, 3-[4-(2-Benzenesulfonylamino-4-ethylcarbamoyl-phenoxy)-phenyl]-propionic acid]: under 1 µM; `CCNC(=O)c1ccc(Oc2ccc(CC(=O)O)cc2OC)c(NS(=O)(=O)c2ccc(Cl)cc2Cl)c1` [Example 12, (4-[2-(2,4-Dichloro-benzenesulfonyl-amino)-4-ethylcarbamoyl-phenoxy]-3-methoxy-phenyl)-acetic acid]: under 1 µM. Next, `CCNC(=O)c1ccc(S(=O)(=O)c2ccc(CC(=O)O)cc2)c(NS(=O)(=O)c2ccc(Cl)cc2Cl)c1` [Example 17, {4-[2-(2,4-dichloro-benzenesulfonyl-amino)-4-ethylcarbamoyl-benzenesulfonyl]-phenyl}-acetic acid]: 1 to 15 µM. In turn, `CCNC(=O)c1cc(NS(=O)(=O)c2ccc(Cl)cc2Cl)c2oc3c(Cl)cc(CC(=O)O)cc3c2c1` [Example 18, [4-chloro-6-(2,4-dichloro-benzenesulfonyl-amino)-8-ethylcarbamoyl-dibenzofuran-2-yl]-acetic acid] gave a 50% inhibitory concentration (IC50) of under 1 µM.

With `CCOC(=O)Cc1cccc(Oc2ccccc2[N+](=O)[O-])c1` [Example 31, Ethyl 3-(2-nitrophenoxy)phenylacetate], the half-inhibitory concentration (IC50) was over 15 µM. Turning to `O=C(O)Cc1cccc(Oc2ccc(C(=O)c3ccccc3)cc2NS(=O)(=O)c2ccccc2)c1` [Example 33, 3-(4-Benzoyl-2-benzenesulfonylamino-phenoxy)phenylacetic acid], the half-maximal inhibitory concentration (IC50) is 1 to 15 µM.

`O=C(O)Cc1cccc(Oc2ccc(Cl)cc2NS(=O)(=O)c2ccccc2)c1` [Example 35, 3-(4-Chloro-2-benzenesulfonylamino-phenoxy)phenylacetic acid] registered a half-inhibitory concentration (IC50) of under 1 µM. Regarding `COc1ccc(Oc2cccc(CC(=O)O)c2)c(NS(=O)(=O)c2ccccc2)c1` [Example 36, 3-(4-Methoxy-2-benzenesulfonylamino-phenoxy)phenylacetic acid], the IC50 lay within 1 to 15 µM.

`O=C(O)Cc1cn(Cc2ccccc2NCc2ccccc2)c2ccccc12` [Example 63] yielded a half-maximal inhibitory concentration (IC50) of 1 to 15 µM. Next, `Cc1ccc(S(=O)(=O)Nc2ccccc2Cc2ccc(CC(=O)O)cc2)cc1` [Example 64]: under 1 µM; `CCNC(=O)c1ccc(C(=O)c2cc(CC(=O)O)ccc2OC)c(NS(=O)(=O)c2ccc(C)cc2)c1` [Example 70]: under 1 µM. Next, `CCNC(=O)c1ccc(Oc2ccc(Cc3nnn[nH]3)cc2OC)c(NS(=O)(=O)c2ccc(Cl)cc2Cl)c1` [Example 75, 3-(2,4-Dichloro-benzenesulfonylamino)-N-ethyl-4-[2-methoxy-4-(1H-tetrazol-5-ylmethyl)-phenoxy]-benzamide]: under 1 µM; `CCNC(=O)c1ccc(Oc2cc(CC(=O)O)ccc2OC)c(NC(=O)OC(C)C)c1` [Example 77, [3-(4-Ethylcarbamoyl-2-isopropoxycarbonylamino-phenoxy)-4-methoxy-phenyl]-acetic acid]: 1 to 15 µM.
